Legend:
[1] = Pharmacokinetics of levosimendan and its active metabolite (elimination half-life, absorption); assay type: in vivo, human; conditions: active first-pass metabolite of levosimendan
Excerpt: The hemodynamic effects of levosimendan in man are described in Sundberg, S. et al., Am. J. Cardiol., 1995; 75: 1061-1066. Pharmacokinetics of levosimendan in man after i.v. and oral dosing is described in Sandell, E. -P. et al., J. Cardiovasc. Pharmacol., 26(Suppl. I), S57-S62, 1995. The use of levosimendan in the treatment of myocardial ischemia is described in WO 93/21921. Clinical studies have confirmed the beneficial effects of levosimendan in heart failure patients.
Firstly, the elimination half-life of levosimendan in human is short, about 1 h. Therefore, using conventional immediate release oral formulations levosimendan should be administered frequently during the day. Secondly, the gastrointestinal absorption of levosimendan is rapid. Therefore, using immediate release oral formulations high peak plasma concentrations of levosimendan are reached rapidly and abruptly, typically within 1 hour. High plasma concentrations of levosimendan tend to increase heart rate which is an undesired effect in heart failure patients.
The discovery of the active metabolite and its formation route makes it now possible to design controlled release preparations which show a reduced occurrence of undesired effects and which are well suited for the treatment of heart failure patients.

[2] = Steady-state clinical study: plasma levels of levosimendan and metabolite (II) after 7 days levosimendan administration; assay type: in vivo; conditions: human, po, 1 mg levosimendan orally three times a day for 7 days, healthy volunteers, formulation as Formulation 3 except 1 mg levosimendan and Avicel PH-200 51.0 mg, N 14, read-out: Mean plasma level of levosimendan (day 7)
Description: The steady-state plasma level for metabolite (II) can be measured for any composition by administering the composition of levosimendan to a volunteer or group of volunteers once or several times a day for several days until a steady state level of (II) is reached. The plasma levels of the active metabolite (II) can then be measured according to the procedure described in detail in Example 2.
The active metabolite (II) is added in 20 μl of phosphate buffer, pH 7.2 to 0.5 ml of analyte-free plasma. The amounts of analyte added are 0.100, 0.250, 0.500, 1.00, 2.50, 3.75, 5.00, 7.50 and 12.5 ng. After being vortexed for 20 seconds and left standing for 10 minutes, the 2500 pg of internal standard (R)-N-[4-(1,4,5,6-tetrahydro-4-ethyl-6-oxo-3-pyridazinyl)phenyl]acetamide is added in 20 μl of phosphate buffer, pH 7.2. The mixture is vortexed for 1 minute and left standing for 15 minutes. The calibration samples are alkalised with 50 μl of 0.1 M sodium hydroxide and vortexed for 20 seconds. […]
Determinations are carried out by using the selected reaction monitoring technique. […] The selected reaction monitoring chromatograms are recorded using a PE Sciex API 300 Data System.
Peak area ratios of analyte and its internal standard are plotted against concentrations. […] The limit of quantitation is 0.200 ng/ml. […]

[3] = cited from earlier work

concentration at 1 h ([2]; 1 h after the last dose (day 7)) [ng/mL]	concentration at 4 h ([2]; 4 h after the last dose (day 7)) [ng/mL]	Compound	elimination half-life compared with levosimendan [1]	time to reach peak plasma concentrations ([3]; immediate release oral formulations) [h]	elimination half-life ([3]; in human)
–	–	CC(=O)Nc1ccc(C2=NNC(=O)C[C@H]2C)cc1 [Metabolite (II), (R)-N-[4-(1,4,5,6-tetrahydro-4-methyl-6-oxo-3-pyridazinyl)phenyl]acetamide]	substantially longer than that of levosimendan	–	–
15.4	8.9	CC1CC(=O)NN=C1c1ccc(NN=C(C#N)C#N)cc1 (single isomer, unassigned; (-)) [Levosimendan, (−)-[[4-(1,4,5,6-tetrahydro-4-methyl-6-oxo-3-pyridazinyl)phenyl]hydrazono]propanedinitrile]	–	≤ 1	about 1 h
